Our source for the Ki values is patent US20080242683A1, “Organic Compounds” (priority 2005, published 2008).

Counter-ions that a name gives are not always drawn.

Sequence of adenosine A2A receptor (P29274 whole entry): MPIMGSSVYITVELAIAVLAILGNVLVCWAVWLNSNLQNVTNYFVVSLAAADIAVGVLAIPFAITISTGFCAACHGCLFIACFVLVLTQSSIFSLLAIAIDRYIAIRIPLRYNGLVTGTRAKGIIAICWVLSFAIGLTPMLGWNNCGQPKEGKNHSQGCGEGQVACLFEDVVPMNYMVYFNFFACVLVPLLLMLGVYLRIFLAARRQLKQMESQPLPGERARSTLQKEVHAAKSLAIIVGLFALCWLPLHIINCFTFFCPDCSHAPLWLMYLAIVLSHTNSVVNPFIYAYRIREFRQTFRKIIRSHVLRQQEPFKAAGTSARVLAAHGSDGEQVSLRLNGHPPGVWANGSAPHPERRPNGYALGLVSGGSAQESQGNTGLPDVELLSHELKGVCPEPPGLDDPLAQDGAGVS

The target in the test is adenosine A2A receptor (Homo sapiens, UniProt P29274). Briefly: adenosine A2A receptor agonist assay (method of Murphree et al.). It counts as binding. The conditions noted are these: Mol Pharmacol 61, 455-462 (2002). The text has this:
Compounds of formula (I) and their pharmaceutically acceptable salts are useful as pharmaceuticals. In particular, they activate the adenosine A2A receptor, i.e., they act as A2A receptor agonists.
Compound `OC[C@H]1O[C@@H](n2cnc3c(NCC(c4ccccc4)c4ccccc4)nc(N4CC[C@H](c5ccc(F)cc5)C4)nc32)[C@H](O)[C@@H]1O` [Example 2, (2R,3R,4S,5R)-2-{6-(2,2-diphenyl-ethylamino)-2-[(R)-3-(4-fluoro-phenyl)-pyrrolidin-1-yl]-purin-9-yl}-5-hydroxymethyl-tetrahydro-furan-3,4-diol trifluoroacetate] yielded a Ki of 0.61 µM.

Turning to `N[C@@H]1CCN(c2nc(NCC(c3ccccc3)c3ccccc3)c3ncn([C@@H]4O[C@H](CO)[C@@H](O)[C@H]4O)c3n2)C1` [Example 7, (2R,3R,4S,5R)-2-[2-((R)-3-Amino-pyrrolidin-1-yl)-6-(2,2-diphenyl-ethylamino)-purin-9-yl]-5-hydroxymethyl-tetrahydro-furan-3,4-diol trifluoroacetate], affinity was put at a Ki of 0.19 µM.

On to `O=C(NC1CCN(c2ccccn2)CC1)N[C@@H]1CCN(c2nc(NCC(c3ccccc3)c3ccccc3)c3ncn([C@@H]4O[C@H](CO)[C@@H](O)[C@H]4O)c3n2)C1` [Example 9, 1-{(R)-1-[9-((2R,3R,4S,5R)-3,4-Dihydroxy-5-hydroxymethyl-tetrahydro-furan-2-yl)-6-(2,2-diphenyl-ethylamino)-9H-purin-2-yl]-pyrrolidin-3-yl}-3-(3,4,5,6-tetrahydro-2H-[1,2′]bipyridinyl-4-yl)-urea trifluoroacetate], for which the Ki was 0.16 µM.

Compound `O=C(N[C@@H]1CCNC1)N[C@@H]1CCN(c2nc(NCC(c3ccccc3)c3ccccc3)c3ncn([C@@H]4O[C@H](CO)[C@@H](O)[C@H]4O)c3n2)C1` [Example 11, 1-{(R)-1-[9-((2R,3R,4S,5R)-3,4-Dihydroxy-5-hydroxymethyl-tetrahydro-furan-2-yl)-6-(2,2-diphenyl-ethylamino)-9H-purin-2-yl]-pyrrolidin-3-yl}-3-(R)-pyrrolidin-3-yl-urea trifluoroacetate] had a Ki of 0.012 µM.

Turning to `OC[C@H]1O[C@@H](n2cnc3c(NCC(c4ccccc4)c4ccccc4)nc(N4CC[C@@H](O)C4)nc32)[C@H](O)[C@@H]1O` [Example 13, (2R,3R,4S,5R)-2-[6-(2,2-diphenyl-ethylamino)-2-((R)-3-hydroxy-pyrrolidin-1-yl)-purin-9-yl]-5-hydroxymethyl-tetrahydro-furan-3,4-diol], the affinity, expressed as Ki, was 0.054 µM. Compared with the last compound, the Ki is about 4.5-fold higher.

Compound `CN(C)[C@@H]1CCN(c2nc(NCC(c3ccccc3)c3ccccc3)c3ncn([C@@H]4O[C@H](CO)[C@@H](O)[C@H]4O)c3n2)C1` [Example 22, (2R,3R,4S,5R)-2-[2-((R)-3-dimethylamino-pyrrolidin-1-yl)-6-(2,2-diphenyl-ethylamino)-purin-9-yl]-5-hydroxymethyl-tetrahydro-furan-3,4-diol trifluoroacetate] returned a Ki of 0.0005 µM.

`O=C(N[C@@H]1CCN(C(=O)NC2CCN(C(=O)OCc3ccccc3)CC2)C1)N[C@@H]1CCN(c2nc(NCC(c3ccccc3)c3ccccc3)c3ncn([C@@H]4O[C@H](CO)[C@@H](O)[C@H]4O)c3n2)C1` [Example 24, 4-{[(R)-3-(3-{(R)-1-[9-((2R,3R,4S,5R)-3,4-Dihydroxy-5-hydroxymethyl-tetrahydro-furan-2-yl)-6-(2,2-diphenyl-ethylamino)-9H-purin-2-yl]-pyrrolidine-3-yl}-ureido)-pyrrolidine-1-carbonyl]-amino}-piperidine-1-carboxylic acid benzyl ester trifluoroacetate] yielded a Ki of 0.059 µM. Compared with the last compound, the Ki is about 120-fold higher.

Take `CCc1cc([C@H]2O[C@@H](n3cnc4c(N[C@H](CO)Cc5ccccc5)nc(N5CC[C@@H](N6CCCC6)C5)nc43)[C@H](O)[C@@H]2O)on1` [Example 65, (2R,3R,4S,5S)-2-[(R)-2-[1,3′]Bipyrrolidinyl-1′-yl-6-((S)-1-hydroxymethyl-2-phenyl-ethylamino)-purin-9-yl]-5-(3-ethyl-isoxazol-5-yl)-tetrahydro-furan-3,4-diol]: the Ki worked out at 0.002 µM.

With `CCn1nnc(C2OC(n3cnc4c(NCC(c5ccc(O)cc5)c5ccc(O)cc5)nc(N5CCC(NC(=O)c6ccc(N7CCOCC7)nc6)C5)nc43)C(O)C2O)n1` [Example 77, N—((R)-1-{6-[2,2-bis-(4-Hydroxy-phenyl)-ethylamino]-g-[(2R,3R,4S,5R)-5-(2-ethyl-2H-tetrazol-5-yl)-3,4-dihydroxy-tetrahydro-furan-2-yl]-9H-purin-2-yl}-pyrrolidin-3-yl)-6-morpholin-4-yl-nicotinamide trifluoroacetate], the Ki was determined as 0.006 µM. Compared with the last compound, the Ki is about 3-fold higher.

The compound `CCn1nnc([C@H]2O[C@@H](n3cnc4c(NCCc5ccc(S(N)(=O)=O)cc5)nc(N5CC[C@@H](NC(=O)N[C@@H]6CCNC6)C5)nc43)[C@H](O)[C@@H]2O)n1` [Example 108, 4-(2-{9-[(2R,3R,4S,5R)-5-(2-Ethyl-2H-tetrazol-5-yl)-3,4-dihydroxy-tetrahydro-furan-2-yl]-2-[(R)-3-((R)-3-pyrrolidin-3-ylureido)-pyrrolidin-1-yl]-9H-purin-6-ylamino}-ethyl)-benzenesulfonamide trifluoroacetate] showed a Ki of 0.005 µM.

For the compound `CCn1nnc([C@H]2O[C@@H](n3cnc4c(NCC(c5ccccc5)c5ccccc5)nc(N5CC[C@@H](NC(=NCc6ccccn6)NC#N)C5)nc43)[C@H](O)[C@@H]2O)n1` [Example 122, N—((R)-1-{6-(2,2-Diphenyl-ethylamino)-9-[(2R,3R,4S,5R)-5-(2-ethyl-2H-tetrazol-5-yl)-3,4-dihydroxy-tetrahydro-furan-2-yl]-9H-purin-2-yl}-pyrrolidin-3-yl)-N′-cyano-N″-pyridin-2-ylmethyl-guanidine], the Ki was 0.004 µM.

Broadly, the Ki is a measure of affinity in units of concentration, obtained from inhibition or displacement. A lower Ki goes with higher affinity.
